The test system of this assay is SLIT2 expression in prostate cancer cell lines. Briefly: QRT-PCR analysis of SLIT2 transcript after compound treatment. The format is cell-based, human. As to conditions: normalized to GAPDH housekeeping gene, FIG. 4c-e, DU145 prostate cancer cell lines, 5 uM SAHA time-course in panel d.

Consider two compounds from patent publication US7968294B2, “SLIT2 underexpression in metastatic prostate cancer” (The Regents of the University of Michigan, priority 2008, dated 2011).

“Also recorded” adds a separate entry of the source.

`Nc1nccc2c1ncn2C1C=C(CO)C(O)C1O` (centres unmarked) [DZNep]: the “SLIT2 expression (transcript level)” value is “Marked up-regulation”.

With `O=C(CCCCCCC(=O)Nc1ccccc1)NO` [SAHA], the “SLIT2 expression (transcript level)” value is “restore the expression level of SLIT2; also recorded: up-regulated”.
